Test results reported in patent publication US20180087086A1, “CELL EGRESS AND INVASION INHIBITORS AND THEIR USE AS ANTIPARASITICAL AGENTS” (THE JOHNS HOPKINS UNIVERSITY, priority 2015, published 2018).

Columns and labels:
[1] = test system: sporozoites; test: sporozoite viability, 2 dye system of ethidium and calcein-AM; assay type: cell-based; details: for viability at 62.5 µM: 0.25 h, 15 min at room temperature, DMSO 96%; for sporozoite viability (ethidium/calcein-AM): extended 15 min incubation at 37° C.
Method: FIG. 12A-FIG. 12C is a series of bar charts that show results of sporozoite viability assays. […] The total number of sporozoites was determined from phase images and the number of non-viable sporozoites from the count of red fluorescing sporozoites.
To further investigate viability, a 2 dye system of ethidium and calcein-AM was used to measure both membrane permeability, a marker of death, and enzyme activity, a marker of viability (FIG. 12B). Live cells with intact membranes are impermeable to the ethidium DNA dye but are permeable to the calcein-AM dye, which can interact with active esterases and will fluoresce green. Dying cells allow the ethidium to cross the membrane and interact with DNA, fluorescing red. This two color readout allowed discrimination between live versus dead sporozoites. Sporozoites were incubated at room temperature with two different concentrations of compounds for 15 min and then counted. […] Compound 4 and 18 at 62.5 μM reduced sporozoite viability to 82% and 88%, respectively. At these concentrations, assays could be performed such that the compounds would not kill the parasite. Instead, the compounds merely impaired parasite mobility, indicating an on-target effect of the small molecule on Aldolase-TRAP. By modulating this interaction, despite not killing the parasites at that point, a dramatic reduction in liver cell invasion was observed (FIG. 14A). […] As these dyes are unable to be fixed and sporozoites are not viable for long periods of time, it is possible that there are some viability variances due to difference in time from incubation with the dye until counting.

[2] = test system: sporozoites; test: gliding motility assay with compound washout (reversibility); assay type: cell-based
Method: FIG. 13 B is a series of photomicrographs that show representative images from slides of gliding sporozoites. DMSO treated sporozoites (a, upper left) with circular gliding pattern versus (b, upper right) pyrazole-urea compound treated sporozoites with a unique wavy line gliding pattern. Below are images of a compound 4 washout slide at 7.8 μM showing a similar wavy gliding patterns in addition to circular gliding (c, d).
A gliding motility assay with a compound washout step was also performed to measure the reversibility of the compound's effects. The sporozoites were incubated at for a total of 20 min with the compound before they were washed and re-suspend and allowed to glide.

[3] = test system: P. berghei sporozoites; test: in vitro sporozoite gliding assay (CSP trails on anti-CSP coated slides); assay type: cell-based; details: for effect on gliding motility (comparison among the five compounds): 250-31.25 μM; for share of gliding sporozoites that were low gliding (less than 10 trails) / sporozoites gliding: lowest concentration of compound (31.25 μM)
Method: Compounds selected from the initial hit list were tested using in vitro gliding assays. Five compounds were selected for dose dependent testing on gliding motility based on early crystallographic experiments and first round gliding assay experiments at high concentration.
P. berghei sporozoites were purified from mosquitoes, incubated with compound, and allowed to glide on anti-CSP coated slides. The CSP-trails deposited by the gliding parasites were detected with anti-CSP antibodies. Trails were quantified for each sporozoite. The ability of each sporozoite to glide was categorized as no gliding (0 trails), and low (<10 trails), medium (10-20 trails), and high gliding (>20 trails).
In the DMSO control, more than 90% of sporozoites deposited trails, with >60% classified as medium and high gliding (>10 trails). […] At lower concentrations of compounds, the sporozoites did start to recover their gliding ability. However, for compound 4 at the lowest concentration of compound, less than 60% of the sporozoites were gliding and when they did glide, 90% of those sporozoites were depositing less than 10 trails and upon inspection of multiple fields, they typically could only complete one circular trail. For compound 18, less than 25% of sporozoites were able to glide at the lowest compound concentration and 75% of those sporozoites were low gliding, with less than 10 trails deposited; however, these low gliding parasites typically deposited more than 1 trail, unlike those from compound 4. […] However, from this single assay, it is not possible to assess whether the compounds were directly affecting the motor through the proposed TRAP-Aldolase interaction, by affecting an energy production step necessary to generate ATP for motor power, or by cytocidal effect.

[4] = test system: Plasmodium parasite; test: cytocidal activity (assay not specified); assay type: cell-based; details: 60 μM concentration
Text: As described herein, inferring from sequence identity between TRAP and CTRP, the Aldolase-CTRP complex is inhibited during the mosquito stage.

[5] = target: P. falciparum aldolase in the presence of TRAP (Plasmodium falciparum, UniProt Q7KQL9); test: aldolase enzyme activity assay, P. falciparum aldolase in the presence of TRAP; assay type: biochemical; details: in the presence of TRAP and the compounds
Text: (§1) FIGS. 16A-16D depict an aldolase enzyme activity assay. (A) Cartoon and surface representation of aldolase with TRAPpep bound (magenta, sticks) (PDB entry 2pc4), overlapping the F16BP (green, sticks) substrate binding site (PDB entry 4ald), via PyMOL. (B) Coupled enzyme assay to measure aldolase activity via NADH consumption as measured at 340 nm. (C) Concentration-dependent effect of compounds on PfAldolase inhibition in the presence of PbTRAP peptide. Activity is normalized to the PbTRAP control, which reduces Vmax to 50% of enzyme without PbTRAP. (D) PfAldolase activity in the presence of compounds to determine direct inhibition of enzyme by the compounds. Activity is normalized to the PfAldolase control measured Vmax. Standard error means plotted for activity assays and standard deviation for SPR data.
(§2) Dose-Dependent Enzymatic Inhibition of Compounds on P. falciparum Aldolase and Rabbit Aldolase as a Surrogate for Human Aldolase.

[6] = target: T1, rabbit aldolase (Oryctolagus cuniculus, UniProt P00883); test: aldolase enzyme activity assay, rabbit aldolase; assay type: biochemical; details: surrogate for human aldolase
T1 sequence (P00883 1-364): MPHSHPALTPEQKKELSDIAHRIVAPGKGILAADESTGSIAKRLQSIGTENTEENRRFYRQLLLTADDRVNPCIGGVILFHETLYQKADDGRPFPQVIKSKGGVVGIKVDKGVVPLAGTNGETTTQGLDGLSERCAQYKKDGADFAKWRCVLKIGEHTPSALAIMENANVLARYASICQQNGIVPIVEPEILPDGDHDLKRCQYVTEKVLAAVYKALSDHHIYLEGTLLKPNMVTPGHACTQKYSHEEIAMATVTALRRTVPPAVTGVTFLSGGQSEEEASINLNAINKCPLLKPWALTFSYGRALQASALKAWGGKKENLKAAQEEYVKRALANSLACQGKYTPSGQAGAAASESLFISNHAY
Text: as §1, §2

Chain of P. falciparum aldolase in the presence of TRAP (Q7KQL9 whole entry): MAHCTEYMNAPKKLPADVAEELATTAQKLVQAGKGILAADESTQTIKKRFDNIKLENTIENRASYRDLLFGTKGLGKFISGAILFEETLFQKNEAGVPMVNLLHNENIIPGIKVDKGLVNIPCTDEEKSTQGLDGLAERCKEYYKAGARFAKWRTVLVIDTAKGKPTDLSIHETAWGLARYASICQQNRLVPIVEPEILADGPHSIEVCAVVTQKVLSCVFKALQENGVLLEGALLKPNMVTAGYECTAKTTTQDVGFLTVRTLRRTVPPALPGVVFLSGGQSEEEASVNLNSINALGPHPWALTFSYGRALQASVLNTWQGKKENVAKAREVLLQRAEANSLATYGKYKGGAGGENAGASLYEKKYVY

Compound	viability at 62.5 µM [1] [%]	sporozoite viability (ethidium/calcein-AM) [1]	reversibility of gliding effect after washout ([2]; 31.25 μM)	reversibility of gliding effect after washout ([2]; 62.5 μM)	reversibility of gliding effect after washout ([2]; 15.625 and 7.8125 μM, 20 min incubation before wash)	effect on gliding motility (comparison among the five compounds) [3]	share of gliding sporozoites that were low gliding (less than 10 trails) [3] [%]	sporozoites gliding [3]	cytocidal activity [4]	inhibition of P. falciparum aldolase [5]	reversibility of gliding effect after washout ([2]; any concentration)	number of high gliding parasites after washout, relative to DMSO control ([2]; less than 8 μM) [%]	total number of parasites gliding after washout ([2]; less than 8 μM)	enzyme inhibition on rabbit aldolase [6]
CCCCn1c(N)c(C(=O)NCc2ccccc2)c2nc3ccccc3nc21 [Compound 18, 2-amino-N-benzyl-1-butyl-1H-pyrrolo[2,3-b]quinoxaline-3-carboxamide]	88	did not differ from the control	the number of high-gliding parasites increased	little reversibility	completely reversible	greatest effect	75	less than 25%	–	–	–	–	–	–
Brc1ccc(Nc2nc3ccccc3nc2Nc2ccc(Br)cc2)cc1 [Compound 4, N,N′-bis(4-bromophenyl)-2,3-quinoxalinediamine]	82	66%	–	–	–	greatest effect	90	less than 60%	cytocidal activity	inhibited	no complete reversibility	10	comparable to wild type	no enzyme inhibition
